Data: PMC6277767, “Broad and Region-Specific Impacts of the Synthetic Cannabinoid CP 55,940 in Adolescent and Adult Female Mouse Brains” (Frontiers in Molecular Neuroscience, 2018)

Assay: CP 55,940 levels in eight brain regions 2 h after single i.p. 3 mg/kg injection (HPLC/MS/MS)
Type: in vivo, mouse
Settings: for CP 55,940 level: 3mg/kg CP 55,940, mean
Protocol: The Bloomington Institutional Animal Care and Use Committee of Indiana University reviewed and approved the animal procedures. Female mice from the CD1 strain were utilized to match our study examining THC’s effects on the brain lipidome ([Leishman et al., 2018]). Mice were given a single i.p. injection of either 3 mg/kg CP or 1:1:18 cremophor:ethanol:saline vehicle (please refer to the section “3 mg/kg CP Is Relevant for Synthetic Cannabinoid Abuse and Has Stronger Effects on the Female Mouse Brain Lipidome During Adolescence” for a justification of dose and use of female mice). Three different age groups were given injections: PND 35 and PND 50 adolescents, and adult mice (PND 113). At least eight mice in each age group received CP and at least eight received vehicle. Matching the THC study time course ([Leishman et al., 2018]), mice were sacrificed via rapid decapitation 2 h after injection. Brains were immediately removed and flash-frozen in liquid nitrogen, and then stored at -80°C until dissections were performed. Brains were dissected on an ice-cold dissection plate into the following regions: STR, HIPP, CER, THAL, CTX, HYP, MID, and STEM. These abbreviations for these brain areas will be used exclusively when discussing the results generated by these specific dissections. Each dissected area was immediately placed in liquid nitrogen and then stored at -80°C until used for lipid extraction.
Tissue extracts were performed as previously described ([Bradshaw et al., 2006]; [Stuart et al., 2013]; [Raboune et al., 2014]; [Leishman et al., 2016a],[b], [2017], [2018]). First, samples were shock frozen in liquid nitrogen, weighed, and transferred to a centrifuge tube. The mass of the largest sample was multiplied by 50 to determine how many milliliters of HPLC-grade methanol (Fisher, Fair Lawn, NJ, United States) to add. Then, samples were spiked with 500 pmol deuterium-labeled NAGly (d8NAGly; Cayman Chemical, Ann Arbor, MI, United States). Samples were placed on ice in darkness for 2 h then individually homogenized and centrifuged at 19,000 × g for 20 min at 20°C. Supernatants were diluted with HPLC water (purified in house) to make a solution of 75% water, 25% supernatant. Lipids were partially purified on C18 solid phase extraction columns (Agilent, Palo Alto, CA, United States). A series of four elutions with 1.5 mL of 60%, 75%, 85%, and 100% methanol were collected ([Stuart et al., 2013]; [Leishman et al., 2016a],[b], [2018]).
As previously described ([Bradshaw et al., 2006]; [Tan et al., 2006]; [Smoum et al., 2010]; [Stuart et al., 2013]; [Tortoriello et al., 2013]; [Raboune et al., 2014]; [Leishman et al., 2016a],[b], [2017], [2018]), samples were analyzed using an Applied Biosystems API 3000 triple quadrupole mass spectrometer with electrospray ionization (Foster City, CA, United States). Using an Agilent XDB-C18 reversed phase analytical column and optimized mobile phase gradients, 20 μL from each elution were chromatographed. Two Shimadzu 10ADvp pumps (Columbia, MD, United States) provided the pressure for gradient elution. Mobile phase A: 20% methanol, 80% water (v/v) and 1 mM ammonium acetate (Sigma, St. Louis, MO, United States). Mobile phase B: 100% methanol, 1 mM ammonium acetate. Every method run began with 0% mobile phase B, reached 100% mobile phase B flowing at 0.2 mL/min, and gradually returned to 0% mobile phase B.
This screening library will be referred to as the lipidome when discussing data from this study. HPLC/MS/MS data were analyzed using Analyst software (Applied Biosystems) ([Bradshaw et al., 2006]; [Tan et al., 2006]; [Stuart et al., 2013]; [Tortoriello et al., 2013]; [Raboune et al., 2014]; [Leishman et al., 2016a],[b], [2017], [2018]). Chromatograms (Supplementary Figure 3) were generated by determining the retention time of analytes from the analytical column with a [M-1] or [M+1] parent peak and a fragmentation peak corresponding to the programmed values. […]

[1] = brainstem, PND 50, 3 mg/kg CP 55,940, one-way ANOVA p .000
[2] = cerebellum, PND 50, 3 mg/kg CP 55,940
[3] = cerebellum, adult, 3 mg/kg CP 55,940
[4] = cerebellum, PND 35, 3 mg/kg CP 55,940
[5] = cortex, PND 35, 3 mg/kg CP 55,940
[6] = hippocampus, PND 50, 3 mg/kg CP 55,940 vs Veh
[7] = hippocampus, adult, 3 mg/kg CP 55,940
[8] = hippocampus, PND 35, 3 mg/kg CP 55,940 vs vehicle
[9] = striatum, PND 50, 3mg/kg CP 55,940 vs Veh
[10] = striatum, adult, 3 mg/kg CP 55,940, one-way ANOVA p .000
[11] = striatum, PND 35, 3mg/kg CP 55,940
[12] = thalamus, PND 50, 3 mg/kg CP 55,940
[13] = thalamus, adult, 3 mg/kg CP 55,940
[14] = thalamus, PND 35, 3 mg/kg CP 55,940

**Q.** Which “CP 55,940 level, Mean” value (brainstem, PND 50, 3 mg/kg CP 55,940) does the source give for `CCCCCCC(C)(C)c1ccc([C@@H]2C[C@H](O)CC[C@H]2CCCO)c(O)c1` [CP 55,940] here?
**A.** Its value is 8.2E-11.

**Q.** And the “CP 55,940 level, Direction (relative to Veh)” value [1]?
**A.** The value was “↑”.

**Q.** What about the “CP 55,940 level, Magnitude (x Veh level)” value [1] of the same molecule?
**A.** Its value is “infinite”.

**Q.** What about the “CP 55,940 level: Direction (relative to Veh)” value [2] of the same molecule?
**A.** The value was “↑”.

**Q.** What about the “CP 55,940 level: Magnitude (x Veh level)” value [2] of the same molecule?
**A.** The value was “infinite”.

**Q.** And the “CP 55,940 level, Mean” value (cerebellum, PND 50 female mice, 3 mg/kg CP 55,940)?
**A.** The value was 7.57E-11.

**Q.** What about the “CP 55,940 level, Mean” value (cerebellum, WT adult female mice, 3mg/kg CP 55,940) of the same molecule?
**A.** Its value is 2.8E-10.

**Q.** What about the “CP 55,940 level: Direction (relative to Veh)” value [3] of the same molecule?
**A.** Its value is “↑”.

**Q.** And the “CP 55,940 level: Magnitude (x Veh level)” value [3]?
**A.** Its value is “infinite”.

**Q.** What about the “CP 55,940 level: Direction (relative to Veh)” value [4] of the same molecule?
**A.** Its value is “↑”.

**Q.** And the “CP 55,940 level: Magnitude (x Veh level)” value [4]?
**A.** Its value is “infinite”.

**Q.** And the “CP 55,940 level, Mean” value (cerebellum, PND35 WT female mice, 3mg/kg CP 55,940)?
**A.** The value was 7.22E-11.

**Q.** And the “CP 55,940 level, Direction (relative to Veh)” value (cortex, PND 50, 3 mg/kg CP 55,940)?
**A.** Its value is “↑”.

**Q.** And the “CP 55,940 level, Magnitude (x Veh level)” value (cortex, PND 50, 3 mg/kg CP 55,940, ANOVA p .000)?
**A.** The value was “infinite”.

**Q.** What about the “CP 55,940 level, Mean” value (cortex, PND 50 female mice, 3mg/kg CP 55,940) of the same molecule?
**A.** The value was 8.61E-11.

**Q.** And the “CP 55,940 level Direction (rel to Veh)” value [5]?
**A.** The value was “↑”.

**Q.** And the “CP 55,940 level, Magnitude (x Veh level)” value [5]?
**A.** Its value is “infinite”.

**Q.** What about the “CP 55,940 level, Mean” value (cortex, PND 35 adolescent female mice, 3 mg/kg CP 55,940) of the same molecule?
**A.** Its value is 1.11E-10.

**Q.** And the “CP 55,940 level, Direction (relative to Veh)” value [6]?
**A.** Its value is “↑”.

**Q.** And the “CP 55,940 level, Magnitude (x Veh level)” value [6]?
**A.** The value was “infinite”.

**Q.** And the “CP 55,940 level” value (hippocampus, PND 50 female mice)?
**A.** The value was 1.23E-10.

**Q.** What about the “CP 55,940 level, Mean” value [7] of the same molecule?
**A.** The value was 2.68E-10.

**Q.** What about the “CP 55,940 level: Direction (relative to Veh)” value [7] of the same molecule?
**A.** The value was “↑”.

**Q.** What about the “CP 55,940 level: Magnitude (x Veh level)” value [7] of the same molecule?
**A.** The value was “infinite”.

**Q.** And the “CP 55,940 level: Direction” value [8]?
**A.** The value was “↑”.

**Q.** What about the “CP 55,940 level: Magnitude” value [8] of the same molecule?
**A.** Its value is “infinite”.

**Q.** What about the “CP 55,940 level, Mean” value (hippocampus, PND 35 WT female mice, 3mg/kg CP 55,940) of the same molecule?
**A.** The value was 9.63E-11.

**Q.** And the “CP 55,940 level, Direction (relative to Veh)” value (hypothalamus, PND 50, 3mg/kg CP 55,940)?
**A.** Its value is “↑”.

**Q.** What about the “CP 55,940 level, Magnitude (x Veh level)” value (hypothalamus, PND 50, 3mg/kg CP 55,940, ANOVA p .000) of the same molecule?
**A.** Its value is “infinite”.

**Q.** And the “CP 55,940 level, Mean” value (hypothalamus, PND 50 female mice, 3mg/kg CP 55,940)?
**A.** The value was 4.38E-11.

**Q.** And the “CP 55,940 level, Mean” value (hypothalamus, PND 35 adolescent female mice, 3 mg/kg)?
**A.** Its value is 5.31E-11.

**Q.** What about the “CP 55,940 level, Direction (relative to Veh)” value (midbrain, PND 50, 3mg/kg CP 55,940) of the same molecule?
**A.** The value was “↑”.

**Q.** What about the “CP 55,940 level, Magnitude (x Veh level)” value (midbrain, PND 50, 3mg/kg CP 55,940, ANOVA p .000) of the same molecule?
**A.** The value was “infinite”.

**Q.** What about the “CP 55,940 level, Mean” value (midbrain, PND 50 female mice, 3mg/kg CP 55,940) of the same molecule?
**A.** The value was 1.21E-10.

**Q.** And the “CP 55,940 level, Mean” value (midbrain, PND 35 WT adolescent female mice, 3 mg/kg)?
**A.** The value was 7.91E-11.

**Q.** And the “CP 55,940 level, Direction (relative to Veh)” value [9]?
**A.** Its value is “↑”.

**Q.** And the “CP 55,940 level, Magnitude (x Veh level)” value [9]?
**A.** Its value is “infinite”.

**Q.** What about the “CP 55,940 level” value (striatum, PND 50 female mice) of the same molecule?
**A.** The value was 5.87E-11.

**Q.** What about the “CP 55,940 level, Mean” value (striatum, adult, 3 mg/kg CP 55,940) of the same molecule?
**A.** The value was 2.08E-10.

**Q.** What about the “CP 55,940 level, Direction (relative to Veh)” value [10] of the same molecule?
**A.** The value was “↑”.

**Q.** What about the “CP 55,940 level, Magnitude (x Veh level)” value [10] of the same molecule?
**A.** Its value is “infinite”.

**Q.** And the “CP 55,940 level: Direction (relative to Veh)” value [11]?
**A.** The value was “↑”.

**Q.** And the “CP 55,940 level: Magnitude (x Veh level)” value [11]?
**A.** The value was “infinite”.

**Q.** What about the “CP 55,940 level: Direction (relative to Veh)” value [12] of the same molecule?
**A.** The value was “↑”.

**Q.** And the “CP 55,940 level: Magnitude (x Veh level)” value [12]?
**A.** The value was “infinite”.

**Q.** And the “CP 55,940 level, Mean” value (thalamus, PND 50 female mice, 3 mg/kg CP 55,940)?
**A.** The value was 9.93E-11.

**Q.** What about the “CP 55,940 level, Mean” value (thalamus, WT adult female mice, 3mg/kg CP 55,940) of the same molecule?
**A.** The value was 2E-10.

**Q.** And the “CP 55,940 level: Direction (relative to Veh)” value [13]?
**A.** The value was “↑”.

**Q.** And the “CP 55,940 level: Magnitude (x Veh level)” value [13]?
**A.** The value was “infinite”.

**Q.** What about the “CP 55,940 level, Direction (relative to Veh)” value [14] of the same molecule?
**A.** Its value is “↑”.

**Q.** What about the “CP 55,940 level, Magnitude (x Veh level)” value [14] of the same molecule?
**A.** The value was “infinite”.

**Q.** What about the “CP 55,940 level, Mean” value (thalamus, PND 35 adolescent female mice, 3 mg/kg CP 55,940) of the same molecule?
**A.** Its value is 8.87E-11.
